According to US20240010646A1, “Urea Co-Crystal of Apixaban, and Preparation Method Therefor” (CHENGDU EASTON BIOPHARMACEUTICALS CO., LTD., priority 2021, published 2024):
In brackets after ≈: the same amount, converted by molar mass. Where two headings read alike, the source gives them in different places.

Assays:
[1] = In vivo pharmacokinetic test in rat, single oral administration, plasma LC/MS/MS; design: species or system SD rats; conditions: for AUClast / Cl_F_obs / Cmax / MRT / T1/2 / Tmax / AUC(0-t) / half-life: corn oil suspension, 4 mL/kg
Procedure: 18 SD rats with 9 male rats and 9 female rats, weighing 220-240 g, purchased by Chengdu Ensiweier Biotechnology Co., Ltd. from Hunan SJA Laboratory Animal Co., Ltd, License: SCXK (Xiang) 2019-0004.
After the test drugs were prepared into […] uniform suspensions with corn oil, they were immediately administered orally to rats at 4 mL/kg, and 0.1 mL of blood was sampled from the jugular vein before the administration and 15 min, 30 min, 1 h, 2 h, 3 h, 4 h, 5 h, 6 h, 7 h, 8 h and 24 h after the administration, placed in EDTA-K2 tubes and centrifuged at 3000 r/min for 10 min. The plasma was separated and stored by freezing at −80° C. in refrigerator.
50 μL of plasma was taken and evenly mixed with 5 μL of working solution or blank diluent, 150 μL of the internal-standard acetonitrile-containing precipitant was added thereto, which was shaken with vortex for 2 min, and centrifuged at 12000 r/min for 10 min. 2 μL of Supernatant was taken and mixed with 200 μL of pure water: acetonitrile (1:1), and then the resultant sample was injected with a volume of 3 μL for analysis.

[2] = Stability test (high temperature, light irradiation, long-term and accelerated storage); type: physicochemical
[3] = Equilibrium solubility test (saturated solutions, external standard method); type: physicochemical
[4] = female rats, listed as The urea co-crystal A
[5] = male rats, listed as The urea co-crystal A
[6] = female rats, listed as Crystalline form N-1
[7] = female, Sprague-Dawley (SD), rat, plasma, po, 1.25 mg/kg, female rats
[8] = male, Sprague-Dawley (SD), rat, plasma, po, 1.25 mg/kg, male rats

Q: With `COc1ccc(-n2nc(C(N)=O)c3c2C(=O)N(c2ccc(N4CCCCC4=O)cc2)CC3)cc1` [Co-crystal A] as the compound, how does the “Increase of bioavailability compared with crystalline form N-1” value ([1]; female rats) read?
A: 21%

Q: What about the “Increase of bioavailability compared with the urea co-crystal IV from HEC Pharm Co., Ltd” value ([1]; female rats) of the same compound?
A: 44.98%

Q: What about the AUClast [1, 4] of the same compound?
A: 33636 ± 8113 ng·h/mL

Q: What about the Cl_F_obs [1, 4] of the same compound?
A: 7.2 ± 1.9 mL/day/kg

Q: And the Cmax [1, 4]?
A: 4653 ± 763 ng/mL

Q: And the MRT [1, 4]?
A: 5.55 ± 0.61 h

Q: And the T1/2 [1, 4]?
A: 4.49 ± 0.10 h

Q: What about the Tmax [1, 4] of the same compound?
A: 1.08 ± 0.72 h

Q: And the “Increase of bioavailability compared with crystal form N-1” value ([1]; male rats)?
A: 29.36%

Q: And the “Increase of bioavailability compared with the urea co-crystal IV from HEC Pharm Co., Ltd” value ([1]; male rats)?
A: 49.94%

Q: What about the AUClast [1, 5] of the same compound?
A: 25567 ± 14447 ng·h/mL

Q: What about the Cl_F_obs [1, 5] of the same compound?
A: 10.8 ± 4.8 mL/day/kg

Q: What about the Cmax [1, 5] of the same compound?
A: 7970 ± 4475 ng/mL

Q: And the MRT [1, 5]?
A: 4.16 ± 0.41 h

Q: What about the T1/2 [1, 5] of the same compound?
A: 5.53 ± 2.98 h

Q: What about the Tmax [1, 5] of the same compound?
A: 1.00 ± 0.00 h

Q: What about the Purity % ([2]; 25 ± 2° C., 60 ± 5% RH, 6 months) of the same compound?
A: 99.92%

Q: What about the Purity % ([2]; 25 ± 2° C., 60 ± 5% RH, Start) of the same compound?
A: 99.93%

Q: And the Purity % ([2]; 40 ± 2° C., 75 ± 5% RH, 6 months)?
A: 99.92%

Q: What about the Purity % ([2]; 40 ± 2° C., 75 ± 5% RH, Start) of the same compound?
A: 99.93%

Q: What about the Purity % ([2]; High Temperature (60° C.), 1 month) of the same compound?
A: 99.92%

Q: What about the Purity % ([2]; High Temperature (60° C.), Start) of the same compound?
A: 99.93%

Q: And the Purity % ([2]; Light Irradiation, 1 month)?
A: 99.93%

Q: And the Purity % ([2]; Light Irradiation, Start)?
A: 99.93%

Q: What about the Crystalline form stability ([2]; all study conditions) of the same compound?
A: good crystalline form stability

Q: And the solubility ([3]; hydrochloric acid pH 1.0 (0.1N), 25° C.)?
A: 48.62 µg/mL

Q: What about the solubility ([3]; hydrochloric acid pH 1.0 (0.1N), 37° C.) of the same compound?
A: 57.33 µg/mL

Q: What about the solubility ([3]; phosphate buffer pH 6.8, 37° C.) of the same compound?
A: 42.74 µg/mL

Q: What about the solubility ([3]; phosphate buffer, 25 °C, pH 6.8, aqueous buffer, thermodynamic from solid, phosphate buffer pH 6.8, 25° C., read-out: Solubility) of the same compound?
A: 37.2 µg/mL

Q: What about the solubility ([3]; pure water, 25° C.) of the same compound?
A: 55.78 µg/mL

Q: And the solubility ([3]; pure water, 37° C.)?
A: 67.98 µg/mL

Q: What does the source list for `COc1ccc(-n2nc(C(N)=O)c3c2C(=O)N(c2ccc(N4CCCCC4=O)cc2)CC3)cc1` [N-1, 1-(4-methoxyphenyl)-7-oxo-6-(4-(2-oxopiperidin-1-yl)phenyl)-4,5,6,7-tetrahydr o-1H-pyrazolo[3,4-c]pyridine-3-carboxamide, reference compound]?
A: Cl_F_obs [1, 6]: 13.4 mL/day/kg; Tmax [1, 6]: 5.83 ± 3.75 h; AUC(0-t) [1, 7]: 27800 ± 13000 ng·h/mL; half-life [1, 7]: 6.83 h; Cmax ([1]; female, Sprague-Dawley (SD), rat, plasma, po, 1.25 mg/kg, female rats, read-out: Cmax): 2570 ± 999 ng/mL; MRT ([1]; female, Sprague-Dawley (SD), rat, plasma, po, 1.25 mg/kg, female rats, read-out: MRT): 7.37 ± 1.79 h; Cl_F_obs ([1]; male rats, listed as Crystalline form N-1): 15.4 ± 7.68 mL/day/kg; AUC(0-t) [1, 8]: 19800 ± 14000 ng·h/mL; half-life [1, 8]: 5.05 ± 1.43 h; Cmax ([1]; male, Sprague-Dawley (SD), rat, plasma, po, 1.25 mg/kg, male rats, read-out: Cmax): 4090 ± 3250 ng/mL; MRT ([1]; male, Sprague-Dawley (SD), rat, plasma, po, 1.25 mg/kg, male rats, read-out: MRT): 4.78 ± 0.75 h; Tmax ([1]; male, Sprague-Dawley (SD), rat, plasma, po, 1.25 mg/kg, male rats, read-out: Tmax): 1 ± 0.87 h; solubility ([3]; hydrochloric acid (0.1N), 25 °C, pH 1, simulated gastric fluid, thermodynamic from solid, hydrochloric acid pH 1.0 (0.1N), 25° C., read-out: Solubility): 31.4 µg/mL (≈ 68.4 µM); solubility ([3]; hydrochloric acid (0.1N), 37 °C, pH 1, simulated gastric fluid, thermodynamic from solid, hydrochloric acid pH 1.0 (0.1N), 37° C., read-out: Solubility): 38.4 µg/mL (≈ 83.6 µM); solubility ([3]; phosphate buffer pH 6.8, 25° C.): 22.09 µg/mL (≈ 48.1 µM); solubility ([3]; phosphate buffer, 37 °C, pH 6.8, aqueous buffer, thermodynamic from solid, phosphate buffer pH 6.8, 37° C., read-out: Solubility): 29.4 µg/mL (≈ 63.9 µM); solubility ([3]; pure water, 25 °C, water, thermodynamic from solid, pure water, 25° C., read-out: Solubility): 36.7 µg/mL (≈ 79.8 µM); solubility ([3]; pure water, 37 °C, water, thermodynamic from solid, pure water, 37° C., read-out: Solubility): 49.2 µg/mL (≈ 107 µM)
